Measurements reported in the supplement of paper PMC10307832.

Legend:
Assay in all cases: relative viability (nuclei count vs DMSO), 5 days (fraction); higher = more cells survive
NCI-H1651 = tested on: NCI-H1651
Method in brief: (§1)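 The day after seeding in 1536-well plates, lung cancer cell lines were treated by pin tool with a single drug, or with a fixed anchor-drug dose together with five library-drug doses (not always all listed) in √10 steps. After 5 days, a combined fix-and-stain solution (final 0.05% Triton X-100, 1% formaldehyde, 1 ug/ml Hoechst) was added. Nuclei counted on 4× images gave relative viability as treated counts over vehicle counts, reported as the median of duplicate plates.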

ABC-1 = tested on: ABC-1
Method in brief: as §1

BEN = tested on: BEN
Method in brief: as §1

H3255 = tested on: H3255
Method in brief: as §1

201T = tested on: 201T
Method in brief: as §1

NCI-H1650 = tested on: NCI-H1650
Method in brief: as §1

A-427 = tested on: A-427
Method in brief: as §1

NCI-H650 = tested on: NCI-H650
Method in brief: as §1

LC-2-ad = tested on: LC-2-ad
Method in brief: as §1

NCI-H727 = tested on: NCI-H727
Method in brief: as §1

NCI-H661 = tested on: NCI-H661
Method in brief: as §1

HCC-15 = tested on: HCC-15
Method in brief: as §1

LCLC-97TM1 = tested on: LCLC-97TM1
Method in brief: as §1

NCI-H1915 = tested on: NCI-H1915
Method in brief: as §1

NCI-H2087 = tested on: NCI-H2087
Method in brief: as §1

CAL-12T = tested on: CAL-12T
Method in brief: as §1

NCI-H441 = tested on: NCI-H441
Method in brief: as §1

NCI-H596 = tested on: NCI-H596
Method in brief: as §1

PC-3 [JPC-3] = tested on: PC-3 [JPC-3]
Method in brief: as §1

NCI-H2023 = tested on: NCI-H2023
Method in brief: as §1

NCI-H520 = tested on: NCI-H520
Method in brief: as §1

NCI-H1944 = tested on: NCI-H1944
Method in brief: as §1

NCI-H460 = tested on: NCI-H460
Method in brief: as §1

Molecule `C[C@@H]1CN(CC(=O)Nc2ccc3c(c2)Cc2cccc(-c4cc(=O)cc(N5CCOCC5)o4)c2S3)C[C@H](C)O1` + O=C(CCCCCCC(=O)Nc1ccccc1)NO [Vorinostat] (partner 1 µM) has a relative viability (NCI-H1651; first compound 0.04 µM) of 0.541, a relative viability (NCI-H1651; first compound 0.1265 µM) of 0.535 and a relative viability (NCI-H1651; first compound 0.4 µM) of 0.538. It also gave a relative viability (NCI-H1651; first compound 4 µM) of 0.559, a relative viability (ABC-1; first compound 0.04 µM) of 0.917 and a relative viability (ABC-1; first compound 0.1265 µM) of 1.14. For the same molecule, the relative viability (ABC-1; first compound 0.4 µM) was 1.23, the relative viability (ABC-1; first compound 4 µM) was 1.27 and the relative viability (BEN; first compound 0.04 µM) was 0.56. For the same molecule, the relative viability (BEN; first compound 0.1265 µM) was 0.55, the relative viability (BEN; first compound 0.4 µM) was 0.602 and the relative viability (BEN; first compound 4 µM) was 0.625. It also gave a relative viability (H3255; first compound 0.04 µM) of 0.634, a relative viability (H3255; first compound 0.1265 µM) of 0.757 and a relative viability (H3255; first compound 0.4 µM) of 0.985. The relative viability (H3255; first compound 4 µM) was 0.67, the relative viability (201T; first compound 0.04 µM) was 0.926 and the relative viability (201T; first compound 0.1265 µM) was 0.942. It also gave a relative viability (201T; first compound 0.4 µM) of 1.01, a relative viability (201T; first compound 4 µM) of 0.81 and a relative viability (NCI-H1650; first compound 0.04 µM) of 0.604. The relative viability (NCI-H1650; first compound 0.1265 µM) was 0.488, the relative viability (NCI-H1650; first compound 0.4 µM) was 0.588 and the relative viability (NCI-H1650; first compound 4 µM) was 0.517. For the same molecule, the relative viability (A-427; first compound 0.04 µM) was 0.853, the relative viability (A-427; first compound 0.1265 µM) was 0.92 and the relative viability (A-427; first compound 0.4 µM) was 0.908. For the same molecule, the relative viability (A-427; first compound 4 µM) was 0.779, the relative viability (NCI-H650; first compound 0.04 µM) was 0.364 and the relative viability (NCI-H650; first compound 0.1265 µM) was 0.386. It also gave a relative viability (NCI-H650; first compound 0.4 µM) of 0.39, a relative viability (NCI-H650; first compound 4 µM) of 0.414 and a relative viability (LC-2-ad; first compound 0.04 µM) of 0.639. It also gave a relative viability (LC-2-ad; first compound 0.1265 µM) of 0.679, a relative viability (LC-2-ad; first compound 0.4 µM) of 0.712 and a relative viability (LC-2-ad; first compound 4 µM) of 0.606. For the same molecule, the relative viability (NCI-H727; first compound 0.04 µM) was 1.03, the relative viability (NCI-H727; first compound 0.1265 µM) was 1.17 and the relative viability (NCI-H727; first compound 0.4 µM) was 1.15. The relative viability (NCI-H727; first compound 4 µM) was 1.13, the relative viability (NCI-H661; first compound 0.04 µM) was 0.689 and the relative viability (NCI-H661; first compound 0.1265 µM) was 0.805. It also gave a relative viability (NCI-H661; first compound 0.4 µM) of 0.756, a relative viability (NCI-H661; first compound 4 µM) of 0.773 and a relative viability (HCC-15; first compound 0.04 µM) of 0.825. The relative viability (HCC-15; first compound 0.1265 µM) was 0.769, the relative viability (HCC-15; first compound 0.4 µM) was 0.729 and the relative viability (HCC-15; first compound 4 µM) was 0.663. The relative viability (LCLC-97TM1; first compound 0.1265 µM) was 0.547, the relative viability (LCLC-97TM1; first compound 0.4 µM) was 0.685 and the relative viability (LCLC-97TM1; first compound 4 µM) was 0.552. It also gave a relative viability (NCI-H1915; first compound 0.04 µM) of 0.434, a relative viability (NCI-H1915; first compound 0.1265 µM) of 0.538 and a relative viability (NCI-H1915; first compound 0.4 µM) of 0.537. The relative viability (NCI-H1915; first compound 4 µM) was 0.421, the relative viability (NCI-H2087; first compound 0.04 µM) was 0.85 and the relative viability (NCI-H2087; first compound 0.1265 µM) was 0.587. The relative viability (NCI-H2087; first compound 0.4 µM) was 0.663, the relative viability (NCI-H2087; first compound 4 µM) was 0.62 and the relative viability (CAL-12T; first compound 0.04 µM) was 0.719. The relative viability (CAL-12T; first compound 0.1265 µM) was 0.623, the relative viability (CAL-12T; first compound 0.4 µM) was 0.739 and the relative viability (CAL-12T; first compound 4 µM) was 0.377. For the same molecule, the relative viability (NCI-H441; first compound 0.04 µM) was 0.718, the relative viability (NCI-H441; first compound 0.1265 µM) was 0.777 and the relative viability (NCI-H441; first compound 0.4 µM) was 0.849. For the same molecule, the relative viability (NCI-H441; first compound 4 µM) was 0.625, the relative viability (NCI-H596; first compound 0.04 µM) was 0.627 and the relative viability (NCI-H596; first compound 0.1265 µM) was 0.707. The relative viability (NCI-H596; first compound 0.4 µM) was 0.642, the relative viability (NCI-H596; first compound 4 µM) was 0.567 and the relative viability (PC-3 [JPC-3]; first compound 0.04 µM) was 0.822. The relative viability (PC-3 [JPC-3]; first compound 0.1265 µM) was 0.792, the relative viability (PC-3 [JPC-3]; first compound 0.4 µM) was 0.821 and the relative viability (PC-3 [JPC-3]; first compound 4 µM) was 0.821. The relative viability (NCI-H2023; first compound 0.04 µM) was 0.578, the relative viability (NCI-H2023; first compound 0.1265 µM) was 0.59 and the relative viability (NCI-H2023; first compound 0.4 µM) was 0.581. The relative viability (NCI-H2023; first compound 4 µM) was 0.505, the relative viability (NCI-H520; first compound 0.04 µM) was 0.776 and the relative viability (NCI-H520; first compound 0.1265 µM) was 0.677. For the same molecule, the relative viability (NCI-H520; first compound 0.4 µM) was 0.656, the relative viability (NCI-H520; first compound 4 µM) was 0.562 and the relative viability (NCI-H1944; first compound 0.1265 µM) was 0.716. The relative viability (NCI-H1944; first compound 0.4 µM) was 0.594, the relative viability (NCI-H1944; first compound 4 µM) was 0.637 and the relative viability (NCI-H460; first compound 0.04 µM) was 0.69. It also gave a relative viability (NCI-H460; first compound 0.1265 µM) of 0.738, a relative viability (NCI-H460; first compound 0.4 µM) of 0.704 and a relative viability (NCI-H460; first compound 4 µM) of 0.203.
